Tests used:
MC3T3-E1 cells = assay: Centrifugation cell adhesion assay on ligand-tethered SAMs; format: cell-based, murine
Description: MC3T3-E1 murine immature osteoblast-like cells (Riken Cell Bank, Hirosawa, Japan) were used because of their expression of multiple integrins, including alpha5beta1, alpha2beta1, and alphaVbeta3. Cells were maintained at 37° C. in α-MEM supplemented with 10% FBS and 1% penicillin-streptomycin and passaged every 2-3 days via standard culture techniques.
Self-assembled monolayers (SAMs) of alkanethiols on gold were used to present well-defined, ordered surfaces with anchoring groups within a non-fouling background. Tri(ethylene glycol)-terminated alkanethiol (HS—(CH2)11—(OCH2CH2)3—OH; EG3) and carboxylic acid-terminated alkanethiol (HS—(CH2)11—(OCH2CH2)6—OCH2COOH; EG6-COOH) were previously synthesized and characterized. Gold-coated substrates were prepared by sequential deposition of titanium (100 Å) and gold (200 Å) films via an electron beam evaporator (Thermionics Laboratories, Hayward, Calif., 2×10^−6 Torr, 1 A/s) onto clean 6-well plate lids or glass coverslips. Mixed SAM surfaces were prepared on substrates by immersing in a 1.0 mM mixed solution of EG3/EG6-COOH thiols (4 h). Peptide ligands were tethered using standard peptide chemistry. Briefly, following washing in ethanol and ultrapure H2O, SAMs were incubated in 2.0 mM EDC and 5.0 mM NHS in 0.1 M 2-(N-morpho)-ethanesulfonic acid and 0.5 M NaCl (pH 6.0), and subsequently immersed in a 20 mM solution of 2-mercaptoethanol in deionized H2O. Adhesive ligands in PBS were then incubated on the activated supports for 30 min and the unreacted surface NHS esters were then quenched in 20 mM glycine. Finally, the surfaces were blocked in 1% heat-denatured bovine serum albumin (BSA) and then incubated overnight in DPBS to reduce nonspecific protein adsorption.
A modification of a centrifugation assay was used to apply controlled detachment forces to cells adhering to engineered surfaces. Multi-wells of engineered surfaces were created on gold-coated polystyrene plate lids using silicone gaskets (Grace Bio-Labs, Bend, Oreg.). Mixed SAMs were assembled and ligands tethered at varying densities. MC3T3-E1 cells were labeled with […] calcein-AM, a membrane-permeable green fluorescent dye, in 2 mM dextrose-DPBS for 30 min and resuspended in α-MEM with 10% FBS. Cells were seeded onto the surfaces at 200 cells/mm^2, and allowed to attach for 1 h at 37° C. For blocking antibody experiments, cells were incubated in the presence of function-perturbing antibodies (10 μg/ml) for 10 min with gentle agitation prior to cell seeding. Before centrifugation, cell images were taken using a Nikon TE-300 fluorescence microscope and Spot RT digital camera. Wells were then filled completely with dextrose-PBS, sealed, inverted, and centrifuged for 5 min at a prescribed speed on a Beckman Allegra 6 centrifuge (GH 3.8 rotor) to apply normal detachment forces. Media was then gently aspirated from the wells, and wells were refilled for post-spin image collection. Post/pre-spin cell ratios were determined by image analysis, and this adhesive fraction was plotted against ligand surface density to obtain cell adhesion profiles.

[1] = tested on: HFN7.1 monoclonal antibody; assay: ELISA with HFN7.1 monoclonal antibody; format: binding; conditions: passively adsorbed ligands, various coating concentrations
Description: An ELISA was used to probe for the biological activity of the FNIII7-10 fragment compared to pFN. FNIII7-10 or pFN was adsorbed onto either uncoated or Neutravidin-coated (100 μg/ml) 96-well black U-well Dynex plates at various concentrations for 30 min. Following incubation in blocking buffer (0.25% BSA, 0.1 M EDTA, 2.5% Tween-20, 0.00125% NaN3), HFN7.1 antibody (0.6 μg/ml in blocking buffer) was added for 1 h at 37° C., and, after washing with blocking buffer, surfaces were incubated in alkaline phosphatase-conjugated anti-mouse IgG (0.6 μg/ml) for 1 h at 37° C. Washed surfaces were exposed to 4-methylumbelliferyl phosphate (25 mg/ml in 10 mM diethanolamine, pH 9.5). The resulting fluorescence was quantified using an HTS 7000 Plus plate reader (Perkin Elmer, Foster City, Calif.) at 360 nm excitation and 465 nm emission.

rat tibia cortical bone = assay: Rat tibia cortical bone implantation, histology and bone-implant contact histomorphometry; format: in vivo; conditions: 4 weeks
Description: Commercially pure titanium implants (FIG. 4) were sonicated in de-ionized water for 20 min to remove surface debris. Implants were then dipped in 4% HF for 30 sec to remove the existing oxide layer and then incubated in 35% HNO3 for 30 min at 50° C. to regenerate a new oxide coating. Samples were transferred to 1.8 N NaOH for 1 min to terminate the oxidation reaction. Implants were then rinsed and boiled in de-ionized water for 1 h. To create the bioactive coating, the implants were incubated in 20 μg/ml GFOGER peptide (SEQ ID NO:1) or type I collagen solution for 1 h. Control titanium rods were incubated in PBS.
Implantations were conducted in accordance with an IACUC-approved protocol. Both hind legs of anesthetized, mature Sprague-Dawley male rats (250-350 g) were shaved and scrubbed with alcohol. The medial aspect of the proximal tibial metaphysis was exposed through an antero-medial skin incision, leaving the medial collateral ligament intact. Using a saline-cooled drill, two defects were created in each tibia. Sterile implant rods were press fit into the defects. Periosteum was mobilized and sutured over the implantation site, and the skin was closed with wound clips. Subjects were euthanized after 4 weeks and proximal tibiae were fixed in neutral buffered formalin for histology or recovered without fixation and maintained in PBS-moistened gauze for immediate mechanical testing.
Excised tibiae were fixed in 10% neutral buffered formalin for 1 week. […] Ground sections of 50-80 μm were generated using the Exakt Grinding System™. Two longitudinal ground sections were generated per tibia, each containing two titanium plugs inserted transverse to the tibia's long axis. Sections were then stained with Sanderson's Rapid Bone Stain™ and a van Gieson counter stain. Bone implant contact (BIC) was measured as the percentage of implant's circumference that was in direct contact with bone tissue (Adobe Photoshop® CS imaging software).
To evaluate the performance of the bioactive GFOGER peptide (SEQ ID NO:1) treatment in vivo, osseointegration in a rat tibia cortical bone model was quantified using quantitative histomorphometry and pull-out mechanical testing. A cylindrical titanium implant rod with a tapered stop collar was designed (FIG. 4). The tapered head ensures that all implants are inserted into the bone at the same depth, guaranteeing uniform bone contact among treatments. Using a saline-cooled drill, two defects 2 mm in diameter were created in the medial aspect of the proximal tibial metaphysis. Implant rods consisting of GFOGER peptide (SEQ ID NO:1) functionalized or untreated (control) titanium were press fit into the cortical defects. After four weeks, the rat tibiae were harvested and evaluated for bone apposition by histological staining and mechanical integration by pull-out testing. […] Representative micrographs show 50-80 μm longitudinal ground sections of rat tibia stained with Sanderson's Rapid Bone Stain™ and van Gieson counterstain. Cells stain dark to light blue, soft tissue elements stain blue-green, and bone matrix stains yellow orange to autumn orange.
Osseointegration of implants in a rat tibia cortical bone model was quantified to evaluate the in vivo performance of the engineered titanium surfaces in bone healing. Importantly, this in vivo model provides a rigorous platform to evaluate implant coating function in a relevant orthopaedic setting. Two 2.0-mm diameter defects were drilled into the medial aspect of the proximal tibial metaphysis using a saline cooled drill. Tapered cylindrical implants (FIG. 4) of clinical-grade titanium were press-fit into the cortical defects.

## GRGDG13PHSRN (GRGDGGGGGGGGGGGGGPHSRN) [RGD-PHSRN]
MC3T3-E1 cells; ligand tethered to SAMs, MC3T3-E1
  ADH50 (ligand density required for half-maximal adhesion): 1950 fmol/cm^2
MC3T3-E1 cells; maximum ligand density, normalized to unblocked controls
  adhesion with blocking antibodies against α5β1 integrin: only slightly reduced adhesion

## pFN: human plasma fibronectin obtained from Invitrogen
[1]
  HFN7.1 binding (biological activity): increased with protein coating concentration

## type I collagen: native type I collagen coating on titanium implants
Rat tibia cortical bone; passively coated implants vs untreated titanium
  bone apposition (bone implant contact, BIC): COL>Ti
Rat tibia cortical bone; passively coated titanium implants (20 μg/ml)
  histology: peri-implant bone mineral: Less bone mineral was visible

From US8445006B2, “Biomolecular coating for implants” (Georgia Tech Research Corporation, priority 2006, dated 2013)
